Laboratory results taken from patent publication US4760136A, “Chartreusin derivatives and salts thereof” (Ishihara Sangyo Kaisha, Ltd., priority 1984, dated 1988).
Read-outs that look alike come from different tables or passages of the source.

Experiments:
[1] = Acute toxicity, intravenous (once), ddY mice; format: in vivo; conditions: mouse, in vivo, formulated per Preparation Example
Description: In Table 7 are shown acute toxicity values (LD50, mg/kg) in ddY mice in the case of intravenously administering (once) each of the compounds of this invention in the form of preparations shown in the Preparation Examples shown in Table 7.

P-388 leukemia cells = experiment: Antitumor activity: P-388 leukemia cells inoculated intraperitoneally, drug administered intravenously, BDF1 mice; format: in vivo; conditions: Mus musculus, P388, iv, read-out: T/C (%) of MST; for response vs control in vivo at 20 mg/kg: dose b: 20 mg/kg × 3, i.v. on days 1, 5 and 9; for response vs control in vivo at 10 mg/kg: dose a: 10 mg/kg × 3, i.v. on days 1, 5 and 9; for response vs control in vivo at 80 mg/kg: dose f: 80 mg/kg × 3, i.v. on days 1, 5 and 9
In short: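 Drug dosing was intravenous on the first, fifth and ninth days after intraperitoneal inoculation of P-388 leukemia cells (1×10^6 per mouse) into BDF1 mice. Vehicles were physiological saline alone, or saline with small amounts of sodium carboxymethyl cellulose or Tween-80.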

[2] = dose c: 40 mg/kg × 3, i.v. on days 1, 5 and 9, BDF1 mice, P-388 i.p.

Row | SMILES | LD50 ([1]; iv) | response vs control in vivo at 20 mg/kg (P-388 leukemia cells; BDF1 mice, P-388 i.p.) | response vs control in vivo at 40 mg/kg (P-388 leukemia cells; [2]) | response vs control in vivo at 80 mg/kg (P-388 leukemia cells; BDF1 mice, P-388 i.p.) | also measured
1 | COC1C(O)C(C)OC(OC2C(Oc3cccc4c(OC(=O)CCCCCNC(=O)C(F)(F)F)c5c(=O)oc6ccc(C)c7c(=O)oc(c34)c5c67)OC(C)C3OC(c4ccc(F)cc4)OC32)C1O (stereo not drawn) [compound 97] | ≥ 30 mg/kg | 156% |  |  | 
2 | COC1C(O)C(C)OC(OC2C(Oc3cccc4c(OC(=O)CN(C)C(=O)C(F)(F)F)c5c(=O)oc6ccc(C)c7c(=O)oc(c34)c5c67)OC(C)C3OC(c4ccccc4)OC32)C1O (stereo not drawn) [Compound No. 25] | ≥ 40 mg/kg | 212% |  |  | 
3 | COC1C(O)C(C)OC(OC2C(Oc3cccc4c(OC(=O)CCC(=O)c5ccccc5)c5c(=O)oc6ccc(C)c7c(=O)oc(c34)c5c67)OC(C)C3OC(C)(C)OC32)C1O (stereo not drawn) [compound 224, 6-O-(3-benzoylpropionyl)-3',4'-O-isopropylidene-chartreusin] | ≥ 60 mg/kg |  |  |  | response vs control in vivo at 50 mg/kg (P-388 leukemia cells; dose d: 50 mg/kg × 3, i.v. on days 1, 5 and 9, BDF1 mice, P-388 i.p.): 148%
4 | COC1C(O)C(C)OC(OC2C(Oc3cccc4c(OC(=O)CC[N+](=O)[O-])c5c(=O)oc6ccc(C)c7c(=O)oc(c34)c5c67)OC(C)C3OC(c4ccccc4)OC32)C1O (stereo not drawn) [Compound No. 166] | ≥ 30 mg/kg |  |  |  | response vs control in vivo at 10 mg/kg (P-388 leukemia cells; BDF1 mice, P-388 i.p.): 138%
5 | COC1C(O)C(C)OC(OC2C(Oc3cccc4c(OC(=O)CCNC=O)c5c(=O)oc6ccc(C)c7c(=O)oc(c34)c5c67)OC(C)C3OC(c4ccccc4C)OC32)C1O (stereo not drawn) [Compound No. 55] | ≥ 40 mg/kg |  | 162% |  | 
6 | COC1C(O)C(C)OC(OC2C(Oc3cccc4c(OC(=O)CCNC=O)c5c(=O)oc6ccc(C)c7c(=O)oc(c34)c5c67)OC(C)C3OC(c4cccc([N+](=O)[O-])c4)OC32)C1O (stereo not drawn) [compound 120] | ≥ 40 mg/kg |  | 148% |  | 
7 | COC1C(O)C(C)OC(OC2C(Oc3cccc4c(OC(=O)CCNC=O)c5c(=O)oc6ccc(C)c7c(=O)oc(c34)c5c67)OC(C)C3OC(CCc4ccccc4)OC32)C1O (stereo not drawn) [compound 83] | ≥ 80 mg/kg |  | 144% | 208% | 
8 | COC1C(O)C(C)OC(OC2C(Oc3cccc4c(OC(=O)CCCNC(=O)C(F)(F)F)c5c(=O)oc6ccc(C)c7c(=O)oc(c34)c5c67)OC(C)C3OC(c4ccccc4)OC32)C1O (stereo not drawn) [Compound No. 24] | ≥ 40 mg/kg | 161% | 223% |  | 
9 | COC1C(O)C(C)OC(OC2C(Oc3cccc4c(OC(=O)CC[S+](C)[O-])c5c(=O)oc6ccc(C)c7c(=O)oc(c34)c5c67)OC(C)C3OC(c4ccccc4)OC32)C1O (stereo not drawn) [Compound No. 150] | ≥ 40 mg/kg | 200% | 205% |  | 
10 | C/C=C(\C)C(=O)Oc1c2cccc(OC3OC(C)C4OC(C)(C)OC4C3OC3OC(C)C(O)C(OC)C3O)c2c2oc(=O)c3c(C)ccc4oc(=O)c1c2c43 (stereo not drawn) [Compound No. 173] | ≥ 80 mg/kg |  | 152% | 192% | 
11 | CO[C@H]1[C@@H](O)[C@@H](C)O[C@H](O[C@H]2[C@H](Oc3cccc4c(OC(=O)c5ccc(C(F)(F)F)cc5)c5c(=O)oc6ccc(C)c7c(=O)oc(c34)c5c67)O[C@H](C)[C@@H]3OC(c4ccccc4)O[C@@H]32)[C@@H]1O (stereo partly drawn) [compound 195] | ≥ 40 mg/kg |  | 165% |  | 
12 | COC1C(O)C(C)OC(OC2C(Oc3cccc4c(OC(=O)C(Cc5c[nH]c6ccccc56)NC(=O)OCc5ccccc5)c5c(=O)oc6ccc(C)c7c(=O)oc(c34)c5c67)OC(C)C3OC(C)(C)OC32)C1O (stereo not drawn) [compound 126] | ≥ 100 mg/kg |  |  | 150% | 
13 | C#CCCC(=O)Oc1c2cccc(O[C@@H]3O[C@H](C)[C@@H]4OC(C)(C)O[C@@H]4[C@H]3O[C@H]3O[C@H](C)[C@H](O)[C@H](OC)[C@H]3O)c2c2oc(=O)c3c(C)ccc4oc(=O)c1c2c43 [compound 201] | ≥ 60 mg/kg |  | 162% |  | 
14 | COC1C(O)C(C)OC(OC2C(Oc3cccc4c(OC(=O)C(C)CN)c5c(=O)oc6ccc(C)c7c(=O)oc(c34)c5c67)OC(C)C3OC(c4cccc(F)c4)OC32)C1O (stereo not drawn) [Compound No. 14] | ≥ 30 mg/kg | 195% |  |  | 
15 | C/C=C(\C)C(=O)Oc1c2cccc(OC3OC(C)C4OC(c5ccc(OC)cc5)OC4C3OC3OC(C)C(O)C(OC)C3O)c2c2oc(=O)c3c(C)ccc4oc(=O)c1c2c43 (stereo not drawn) [compound 234] |  |  |  |  | LD50 [1]: ≥ 40 mg/kg; response vs control in vivo at 40 mg/kg (P-388 leukemia cells): 135%
16 | COC1C(O)C(C)OC(OC2C(Oc3cccc4c(OC(=O)C(Cc5c[nH]c6ccccc56)NC(=O)OCc5ccccc5)c5c(=O)oc6ccc(C)c7c(=O)oc(c34)c5c67)OC(C)C3OC(c4ccccc4)OC32)C1O (stereo not drawn) [compound 121] | ≥ 40 mg/kg |  | 146% |  | 
17 | COC1C(O)C(C)OC(OC2C(Oc3cccc4c(OC(=O)c5ccc(Br)cc5)c5c(=O)oc6ccc(C)c7c(=O)oc(c34)c5c67)OC(C)C3OC(c4ccccc4)OC32)C1O (stereo not drawn) [compound 229] | ≥ 80 mg/kg |  |  |  | response vs control in vivo at 60 mg/kg (P-388 leukemia cells; dose e: 60 mg/kg × 3, i.v. on days 1, 5 and 9, BDF1 mice, P-388 i.p.): 167%
18 | COC1C(O)C(C)OC(OC2C(Oc3cccc4c(OC(=O)C(C)CNC(=O)CN(C)C)c5c(=O)oc6ccc(C)c7c(=O)oc(c34)c5c67)OC(C)C3OC(c4ccccc4)OC32)C1O (stereo not drawn) [Compound No. 4] | ≥ 40 mg/kg | 184% | 216% |  | 
19 | COC1C(O)C(C)OC(OC2C(Oc3cccc4c(OC(=O)CCNC(C)=O)c5c(=O)oc6ccc(C)c7c(=O)oc(c34)c5c67)OC(C)C3OC(C)(C)OC32)C1O (stereo not drawn) [Compound No. 87, 6-O-(N-Acetyl-β-Alanyl)-3',4'-O-Isopropylidene-Chartreusin] | ≥ 100 mg/kg |  | 134% | 183% | 
20 | COC1C(O)C(C)OC(OC2C(Oc3cccc4c(OC(=O)C(CNC(=O)OCc5ccccc5)C(C)C)c5c(=O)oc6ccc(C)c7c(=O)oc(c34)c5c67)OC(C)C3OC(c4ccccc4)OC32)C1O (stereo not drawn) [compound 70] | ≥ 40 mg/kg | 135% | 181% |  | 
21 | COC1C(O)C(C)OC(OC2C(Oc3cccc4c(OC(=O)C(C)CNC(=O)C(F)(F)F)c5c(=O)oc6ccc(C)c7c(=O)oc(c34)c5c67)OC(C)C3OC(c4cccc(C(F)(F)F)c4)OC32)C1O (stereo not drawn) [Compound No. 30] | ≥ 80 mg/kg |  | 171% | 257% | 
22 | C/C=C/C(=O)Oc1c2cccc(O[C@@H]3O[C@H](C)[C@@H]4OC(C)(C)O[C@@H]4[C@H]3O[C@H]3O[C@H](C)[C@H](O)[C@H](OC)[C@H]3O)c2c2oc(=O)c3c(C)ccc4oc(=O)c1c2c43 [compound 200] | ≥ 80 mg/kg |  | 168% |  | 
23 | CO[C@H]1[C@@H](O)[C@@H](C)O[C@H](O[C@H]2[C@H](Oc3cccc4c(OC(=O)c5ccccc5Cl)c5c(=O)oc6ccc(C)c7c(=O)oc(c34)c5c67)O[C@H](C)[C@@H]3OC(c4cccc([N+](=O)[O-])c4)O[C@@H]32)[C@@H]1O (stereo partly drawn) [Compound No. 189] | ≥ 80 mg/kg |  | 146% | 214% | 
24 | COC1C(O)C(C)OC(OC2C(Oc3cccc4c(OC(=O)CCNC(=O)C(F)(F)F)c5c(=O)oc6ccc(C)c7c(=O)oc(c34)c5c67)OC(C)C3OC4(CCCCC4)OC32)C1O (stereo not drawn) [compound 132] | ≥ 100 mg/kg |  | 136% | 146% | 
25 | COC1C(O)C(C)OC(OC2C(Oc3cccc4c(OC(=O)CCNC(=O)OCc5ccccc5)c5c(=O)oc6ccc(C)c7c(=O)oc(c34)c5c67)OC(C)C3OC(C)(C)OC32)C1O (stereo not drawn) [compound 107] | ≥ 100 mg/kg |  | 139% | 185% | 
26 | COc1ccc(C2OC3C(C)OC(Oc4cccc5c(OC(=O)CCNC=O)c6c(=O)oc7ccc(C)c8c(=O)oc(c45)c6c78)C(OC4OC(C)C(O)C(OC)C4O)C3O2)cc1 (stereo not drawn) [compound 95] | ≥ 40 mg/kg |  | 173% |  | 
27 | COC(=O)c1ccc(C(=O)Oc2c3cccc(O[C@@H]4O[C@H](C)[C@@H]5OC(C)(C)O[C@@H]5[C@H]4O[C@H]4O[C@H](C)[C@H](O)[C@H](OC)[C@H]4O)c3c3oc(=O)c4c(C)ccc5oc(=O)c2c3c54)cc1 [compound 207] | ≥ 80 mg/kg |  | 130% | 192% | 
28 | C=CCCC(=O)Oc1c2cccc(O[C@@H]3O[C@H](C)[C@@H]4OC(c5ccccc5)O[C@@H]4[C@H]3O[C@H]3O[C@H](C)[C@H](O)[C@H](OC)[C@H]3O)c2c2oc(=O)c3c(C)ccc4oc(=O)c1c2c43 (stereo partly drawn) [compound 192] | ≥ 40 mg/kg | 199% |  |  | response vs control in vivo at 10 mg/kg (P-388 leukemia cells; BDF1 mice, P-388 i.p.): 153%
29 | COC1C(O)C(C)OC(OC2C(Oc3cccc4c(OC(=O)CCN5CCCC5)c5c(=O)oc6ccc(C)c7c(=O)oc(c34)c5c67)OC(C)C3OC(c4ccccc4)OC32)C1O (stereo not drawn) [Compound No. 9] | ≥ 40 mg/kg | 165% | 292% |  | 
30 | CO[C@H]1[C@@H](O)[C@@H](C)O[C@H](O[C@H]2[C@H](Oc3cccc4c(OC(=O)c5ccc(Cl)cc5)c5c(=O)oc6ccc(C)c7c(=O)oc(c34)c5c67)O[C@H](C)[C@@H]3OC(c4ccccc4)O[C@@H]32)[C@@H]1O (stereo partly drawn) [compound 194] | ≥ 40 mg/kg | 130% | 192% |  | 
